# Laboratory results: US12606543B2, “Indole derivatives as serotonergic agents useful for the treatment of disorders related thereto” (priority 2023, dated 2026)
# pEC50: −log10 of the molar value. Read-outs that look alike come from different tables or passages of the source.
# Assays:
# human 5-HT1A receptor = target: T1, human 5-HT1A receptor (Homo sapiens, UniProt P08908); test: Human 5-HT1A cAMP assay; assay type: cell-based; details: for Emax (% of serotonin): cAMP assay, CHO-K1 cells, relative to maximum response of serotonin
# T1 construct: expressed in transfected cells; host or cells: CHO-K1
# T1 sequence (P08908 1-422): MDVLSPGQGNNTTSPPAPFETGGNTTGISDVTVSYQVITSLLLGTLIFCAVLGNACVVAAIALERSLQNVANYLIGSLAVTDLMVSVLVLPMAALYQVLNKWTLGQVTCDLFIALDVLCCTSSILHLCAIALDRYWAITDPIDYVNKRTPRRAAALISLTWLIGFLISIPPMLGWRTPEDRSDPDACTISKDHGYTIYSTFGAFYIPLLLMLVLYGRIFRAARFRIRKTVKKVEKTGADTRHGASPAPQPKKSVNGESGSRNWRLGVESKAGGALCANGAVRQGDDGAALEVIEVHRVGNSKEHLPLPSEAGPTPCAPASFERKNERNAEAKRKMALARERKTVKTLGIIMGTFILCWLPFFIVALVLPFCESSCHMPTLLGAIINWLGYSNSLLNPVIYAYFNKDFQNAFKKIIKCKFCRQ
# Procedure: Compound potency (EC50) and efficacy (Max response) against the human 5-HT1A receptor in stably transfected CHO-K1 cells were determined in a GPCR cell-based CAMP assay.
# (§1) Cells were seeded in a total volume of 20 μL into white walled, 384-well microplates and incubated at 37° C. overnight before analysis. Prior to testing, cell plating media was exchanged with 10 μL of Assay buffer (HBSS+10 mM HEPES). Briefly, intermediate dilution of sample stocks were performed to generate 4× sample in assay buffer. 5 μL of 4× samples+5 μL of 4× forskolin were added to cells and incubated at 37° C. for 30 minutes (mins). The final assay vehicle concentration was 1%.
# as §1, with “sample stocks was performed to” for “sample stocks were performed to”, “generate 4× samples in assay” for “generate 4× sample in assay”, “4× forskolin was added to” for “4× forskolin were added to”, “for 30 mins. The final” for “for 30 minutes (mins). The final”
# [1] = target: human 5-hydroxytryptamine receptor 2A (5-HT2A) (Homo sapiens, UniProt P28223); test: Human 5-HT2A functional FLIPR assay (agonist mode); assay type: cell-based; set-up: expressed in transfected cells; host or cells: Flp-In-293 (HEK293); details: for RFU@10 μM: normalized fluorescence reading (Fmax−Fmin) at 10 μM, curve fitting with activation (%)
# Chain of human 5-hydroxytryptamine receptor 2A (5-HT2A) (P28223 whole entry): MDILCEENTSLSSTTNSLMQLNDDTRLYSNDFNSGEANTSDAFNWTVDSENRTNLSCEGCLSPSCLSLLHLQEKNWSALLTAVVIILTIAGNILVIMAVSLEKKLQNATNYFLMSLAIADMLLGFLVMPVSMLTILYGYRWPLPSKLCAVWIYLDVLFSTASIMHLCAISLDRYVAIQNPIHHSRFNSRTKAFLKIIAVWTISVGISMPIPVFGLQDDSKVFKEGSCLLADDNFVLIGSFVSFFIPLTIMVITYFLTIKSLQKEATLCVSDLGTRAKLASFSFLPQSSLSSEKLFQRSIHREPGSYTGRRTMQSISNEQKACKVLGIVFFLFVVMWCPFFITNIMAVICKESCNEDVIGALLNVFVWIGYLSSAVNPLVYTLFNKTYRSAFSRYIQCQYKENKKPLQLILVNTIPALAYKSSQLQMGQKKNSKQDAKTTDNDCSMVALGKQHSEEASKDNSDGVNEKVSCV
# Procedure: The potential excitatory effects of compounds targeting human 5-hydroxytryptamine receptor 2A (5-HT2A) under agonist mode was assessed.
# HTR2A&Gα15-HEK293 cells were cultured in DMEM medium containing 10% dialyzed FBS and 1× penicillin-streptomycin, 100 μg/mL Hygromycin B and 300 μg/mL G418. The cells were passaged about three times a week, maintained between ˜30% to ˜90% confluence.
# 2. For induction, 1 μg/ml tetracycline (final concentration) was added to cell culture medium and incubated for 48 hours prior to seeding cells into plate at 37° C., 5% (v/v) CO2. The cell culture medium was removed from flask. Cells were washed with DP BS.
# 9. 30 μL/well cell suspensions added into a 384-well cell plate (The cell density was 20,000 cells/well).
# 10 μL of assay buffer (20 mM HEPES, in 1×HBSS, pH 7.4) was added to each well of the cell plate.
# 2× dye solution was prepared following the manual of the FLIPR® Calcium 6 Assay Kit: • i. The dye was diluted with assay buffer. • ii. Probenecid was added to the final concentration of 5 mM. • iii. Vortexed vigorously for 1-2 minutes.
# 4. 10 μL of 2× dye solution was added to each well of the cell plate
# 6. The plate was incubated at 37° C. for 2 hours followed by an additional 15-minute incubation at 25° C.
# 1. Serotonin HCl was prepared to the concentration of 10 mM with DMSO.
# 2. The test compounds were prepared to the concentration of 10 mM with DMSO.
# 4. 3-folds serial dilutions were performed with DMSO.
# 5. 90 nL/well of serial diluted compounds was transferred from source plate to a 384-well compound plate by using an Echo.
# 6. 30 μL/well of assay buffer (20 mM HEPES in 1×HBSS, pH 7.4) was added to the compound plate.
# 2. 10 μL of 3× compounds transferred from the compound plate to the cell plate by FLIPR.
# 3. The plate was read for 160 sec with 1 sec interval and the data of agonist mode was obtained.
# 1. The normalized fluorescence reading (RFU) was calculated as shown below, wherein Fmax and Fmin stand for maximum and minimum of calcium signal during defined time window:
# 2. EC50 by fitting RFU against log of compound concentrations with Hill equation was calculated using XLfit.
# 2. 10 μL of assay buffer (20 mM HEPES, in 1×HBSS, pH 7.4) was added to each well of the cell plate.
# 3. 2× dye solution was prepared following the manual of the FLIPR® Calcium 6 Assay Kit: • i. The dye was diluted with assay buffer. • ii. Probenecid was added to the final concentration of 5 mM. • iii. Vortexed vigorously for 1-2 minutes.
# 1. The normalized fluorescence reading (RFU) was calculated as shown below, wherein Fmax and Fmin stand for maximum and minimum of calcium signal during defined time window: RFU=Fmax−Fmin
# [2] = cAMP assay with forskolin, stably transfected CHO-K1 cells, 30 min, read-out: EC50
Structure (SMILES),pEC50 (human 5-HT1A receptor),Emax (% of serotonin) (human 5-HT1A receptor),pEC50 [1],RFU@10 μM [1],"pEC50 ([1]; FLIPR calcium, agonist mode, HTR2A&Gα15-HEK293 cells, read-out: h5-HT2A, EC50)",pEC50 (human 5-HT1A receptor; [2])
"CSc1ccc2[nH]cc(C[C@H]3CCCN3C)c2c1 [(R) I-1, (R)-3-((1-Methylpyrrolidin-2-yl)methyl)-5-(methylthio)-1H-indole]",7.95,99.41 % of serotonin,7.33,"5,663 RFU",,
CN(C)CCc1c[nH]c2ccccc12 [DMT],,87.1 % of serotonin,,"3,493 RFU",6.79,
[2H]C([2H])(c1c[nH]c2ccc(OCCCCCN3C(=O)C4CCCCC4C3=O)cc12)[C@H]1CCCN1C([2H])([2H])[2H] (mixture of isomers) [Rac (R) I-248],,,7.27,"8,240 RFU",,
"[2H]C([2H])(c1c[nH]c2ccc(OCCCCN3C(=O)c4ccccc4C3=O)cc12)[C@H]1CCCN1C([2H])([2H])[2H] [(R) I-244, (R)-2-(4-((3-((1-(Methyl-d3)pyrrolidin-2-yl)methyl-d2)-1H-indol-5-yl)oxy)butyl)isoindoline-1,3-dione]",,99.01 % of serotonin,7.30,"7,945 RFU",,8.20
"[2H]C([2H])(c1c[nH]c2ccc(OCCCCCN3C(=O)c4ccccc4C3=O)cc12)[C@H]1CCCN1C([2H])([2H])[2H] [(R) I-245, (R)-2-(5-((3-((1-(Methyl-d3)pyrrolidin-2-yl)methyl-d2)-1H-indol-5-yl)oxy)pentyl)isoindoline-1,3-dione]",,99.14 % of serotonin,6.92,"8,322 RFU",,7.71
"[2H]C([2H])(c1c[nH]c2ccc(OCCCCCN3C(=O)[C@H]4CCCC[C@H]4C3=O)cc12)[C@H]1CCCN1C([2H])([2H])[2H] [Cis (R) I-248, 2-(5-((3-(((R)-1-(Methyl-d3)pyrrolidin-2-yl)methyl-d2)-1H-indol-5-yl)oxy)pentyl)hexahydro-1H-isoindole-1,3(2H)-dione]",,96.76 % of serotonin,,,,7.28
"COCCN1CCC[C@@H]1Cc1c[nH]c2ccc(OC)cc12 [(R) I-98, (R)-5-Methoxy-3-((1-(2-methoxyethyl)pyrrolidin-2-yl)methyl)-1H-indole]",,96.42 % of serotonin,7.89,"8,298 RFU",,7.39
